Data published in publication PMC10174618, “Monoterpenoid aryl hydrocarbon receptor allosteric antagonists protect against ultraviolet skin damage in female mice” (Nature Communications, 2023).

Key:
Experiment in all cases: biochemical
Set-up in all cases: KINOMEscan scanMAX active site-directed competition binding assay, percent of control, 468 kinases
Conditions in all cases: competition binding, percent of control
MRCKB = target: T1, MRCKB (Homo sapiens, UniProt Q9Y5S2)
T1 construct: gene CDC42BPB
Summary of the method: (§1)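 KINOMEscan active site-directed competition binding assay against 468 human kinases with 100 μM S-carvone. Binding expressed as % of control, with 35% of control as the inhibition threshold.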

[1] = target: T2, ABL1(F317L)-nonphosphorylated (Homo sapiens, UniProt P00519, F317L)
T2 construct: nonphosphorylated
Summary of the method: as §1

GRK7 = GRK7 (Homo sapiens, UniProt Q8WTQ7)
Summary of the method: as §1

CDC2L1 = target: T3, CDC2L1 (Homo sapiens, UniProt P21127)
T3 construct: gene CDK11B
Summary of the method: as §1

TAOK2 = TAOK2 (Homo sapiens, UniProt Q9UL54)
Summary of the method: as §1

PLK3 = PLK3 (Homo sapiens, UniProt Q9H4B4)
Summary of the method: as §1

LCK = LCK (Homo sapiens, UniProt P06239)
Summary of the method: as §1

AMPK-alpha2 = target: T4, AMPK-alpha2 (Homo sapiens, UniProt P54646)
T4 construct: gene PRKAA2
Summary of the method: as §1

PRKG1 = PRKG1 (Homo sapiens, UniProt Q13976)
Summary of the method: as §1

[2] = target: T5, JAK3(JH1domain-catalytic) (Homo sapiens, UniProt P52333)
T5 construct: JH1domain-catalytic
Summary of the method: as §1

ULK3 = ULK3 (Homo sapiens, UniProt Q6PHR2)
Summary of the method: as §1

CDK2 = CDK2 (Homo sapiens, UniProt P24941)
Summary of the method: as §1

CSNK1A1 = CSNK1A1 (Homo sapiens, UniProt P48729)
Summary of the method: as §1

MINK = target: T6, MINK (Homo sapiens, UniProt Q8N4C8)
T6 construct: gene MINK1
Summary of the method: as §1

MKNK1 = MKNK1 (Homo sapiens, UniProt Q9BUB5)
Summary of the method: as §1

Sequence of PRKG1 (Q13976 whole entry): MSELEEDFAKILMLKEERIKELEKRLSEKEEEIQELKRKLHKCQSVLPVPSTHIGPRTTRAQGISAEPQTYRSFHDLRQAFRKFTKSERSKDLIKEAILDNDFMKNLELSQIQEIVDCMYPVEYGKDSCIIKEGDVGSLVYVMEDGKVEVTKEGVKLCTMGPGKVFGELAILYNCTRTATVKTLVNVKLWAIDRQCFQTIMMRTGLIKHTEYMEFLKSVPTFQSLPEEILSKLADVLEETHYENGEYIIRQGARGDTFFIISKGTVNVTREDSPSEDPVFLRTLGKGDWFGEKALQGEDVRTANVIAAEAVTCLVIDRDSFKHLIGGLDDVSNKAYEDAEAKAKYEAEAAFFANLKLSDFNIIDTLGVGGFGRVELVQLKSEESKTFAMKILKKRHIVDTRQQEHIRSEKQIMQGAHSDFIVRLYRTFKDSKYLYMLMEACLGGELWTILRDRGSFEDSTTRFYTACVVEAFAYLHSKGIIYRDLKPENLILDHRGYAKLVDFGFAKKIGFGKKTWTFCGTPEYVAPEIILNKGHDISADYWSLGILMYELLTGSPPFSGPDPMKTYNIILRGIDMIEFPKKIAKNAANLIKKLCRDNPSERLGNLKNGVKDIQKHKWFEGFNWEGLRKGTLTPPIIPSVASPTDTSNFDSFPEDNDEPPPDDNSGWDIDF
T5 sequence (P52333 whole entry): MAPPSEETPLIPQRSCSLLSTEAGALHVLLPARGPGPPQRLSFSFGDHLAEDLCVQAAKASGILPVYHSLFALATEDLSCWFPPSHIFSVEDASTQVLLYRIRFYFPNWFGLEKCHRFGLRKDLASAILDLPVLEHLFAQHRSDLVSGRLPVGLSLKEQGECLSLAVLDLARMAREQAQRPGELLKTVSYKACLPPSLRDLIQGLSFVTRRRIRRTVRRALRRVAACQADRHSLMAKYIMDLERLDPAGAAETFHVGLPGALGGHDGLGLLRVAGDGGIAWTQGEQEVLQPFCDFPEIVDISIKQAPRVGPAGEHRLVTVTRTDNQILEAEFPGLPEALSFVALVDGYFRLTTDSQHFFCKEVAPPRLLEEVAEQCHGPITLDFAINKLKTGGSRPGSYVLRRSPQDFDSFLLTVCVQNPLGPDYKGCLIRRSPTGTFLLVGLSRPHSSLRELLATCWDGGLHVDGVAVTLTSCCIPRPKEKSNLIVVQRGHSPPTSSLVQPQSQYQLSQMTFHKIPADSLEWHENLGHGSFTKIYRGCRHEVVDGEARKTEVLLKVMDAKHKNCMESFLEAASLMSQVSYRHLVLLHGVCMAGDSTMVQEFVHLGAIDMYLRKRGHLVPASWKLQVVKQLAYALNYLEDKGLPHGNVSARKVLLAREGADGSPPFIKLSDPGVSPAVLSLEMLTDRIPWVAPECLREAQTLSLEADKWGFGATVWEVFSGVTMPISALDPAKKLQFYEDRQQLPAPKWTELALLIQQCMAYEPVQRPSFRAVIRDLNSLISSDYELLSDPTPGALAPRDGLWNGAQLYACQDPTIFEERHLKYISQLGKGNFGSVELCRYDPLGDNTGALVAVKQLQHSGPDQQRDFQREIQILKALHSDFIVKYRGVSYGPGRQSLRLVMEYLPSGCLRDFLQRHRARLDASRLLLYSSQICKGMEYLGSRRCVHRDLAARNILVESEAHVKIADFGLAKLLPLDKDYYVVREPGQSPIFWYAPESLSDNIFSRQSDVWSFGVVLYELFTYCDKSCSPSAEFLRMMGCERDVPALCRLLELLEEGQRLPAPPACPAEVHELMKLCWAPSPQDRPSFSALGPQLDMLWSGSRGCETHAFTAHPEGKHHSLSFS
T1 sequence (Q9Y5S2 whole entry): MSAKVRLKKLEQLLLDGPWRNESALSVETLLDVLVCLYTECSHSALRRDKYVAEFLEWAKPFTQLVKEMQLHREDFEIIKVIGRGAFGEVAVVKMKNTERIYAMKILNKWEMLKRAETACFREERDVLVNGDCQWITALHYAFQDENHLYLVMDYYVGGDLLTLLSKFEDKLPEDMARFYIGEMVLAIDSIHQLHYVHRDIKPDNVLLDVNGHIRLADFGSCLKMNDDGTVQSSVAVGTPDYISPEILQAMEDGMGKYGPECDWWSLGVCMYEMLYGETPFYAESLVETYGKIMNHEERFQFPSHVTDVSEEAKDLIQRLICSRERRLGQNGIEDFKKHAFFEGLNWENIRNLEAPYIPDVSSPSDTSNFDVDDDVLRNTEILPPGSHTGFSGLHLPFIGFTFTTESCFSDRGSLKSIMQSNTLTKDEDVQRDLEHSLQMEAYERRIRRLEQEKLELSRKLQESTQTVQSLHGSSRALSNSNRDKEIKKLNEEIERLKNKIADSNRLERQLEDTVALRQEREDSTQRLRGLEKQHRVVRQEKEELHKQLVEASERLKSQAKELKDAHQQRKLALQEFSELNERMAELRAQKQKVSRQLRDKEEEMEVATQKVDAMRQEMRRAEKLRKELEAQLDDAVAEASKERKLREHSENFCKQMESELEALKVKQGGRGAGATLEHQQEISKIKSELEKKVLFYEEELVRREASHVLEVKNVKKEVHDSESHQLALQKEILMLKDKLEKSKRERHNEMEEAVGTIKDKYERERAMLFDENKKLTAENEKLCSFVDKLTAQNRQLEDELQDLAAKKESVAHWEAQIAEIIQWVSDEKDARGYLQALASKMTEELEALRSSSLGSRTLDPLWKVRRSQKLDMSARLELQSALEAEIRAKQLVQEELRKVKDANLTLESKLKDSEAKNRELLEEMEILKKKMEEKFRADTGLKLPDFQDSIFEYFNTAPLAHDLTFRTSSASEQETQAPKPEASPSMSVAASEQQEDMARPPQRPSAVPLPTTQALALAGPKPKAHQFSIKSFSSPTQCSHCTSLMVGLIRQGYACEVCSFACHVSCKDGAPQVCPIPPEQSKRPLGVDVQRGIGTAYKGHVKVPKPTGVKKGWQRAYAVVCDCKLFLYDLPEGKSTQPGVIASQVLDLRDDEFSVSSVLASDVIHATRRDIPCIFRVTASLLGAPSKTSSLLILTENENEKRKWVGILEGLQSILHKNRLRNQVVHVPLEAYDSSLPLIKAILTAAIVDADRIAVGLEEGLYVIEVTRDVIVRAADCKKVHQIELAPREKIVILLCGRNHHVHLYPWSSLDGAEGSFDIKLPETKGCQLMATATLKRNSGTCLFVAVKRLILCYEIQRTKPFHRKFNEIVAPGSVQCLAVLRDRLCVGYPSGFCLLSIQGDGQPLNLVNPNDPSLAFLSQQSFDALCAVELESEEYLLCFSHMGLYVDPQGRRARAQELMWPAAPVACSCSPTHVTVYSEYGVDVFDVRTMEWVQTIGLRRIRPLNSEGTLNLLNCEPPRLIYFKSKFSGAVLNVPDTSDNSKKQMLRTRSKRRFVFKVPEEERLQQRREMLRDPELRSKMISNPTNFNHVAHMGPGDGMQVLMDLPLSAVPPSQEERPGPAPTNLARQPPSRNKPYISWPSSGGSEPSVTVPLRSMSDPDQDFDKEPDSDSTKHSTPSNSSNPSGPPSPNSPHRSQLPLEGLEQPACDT
T4 sequence (P54646 whole entry): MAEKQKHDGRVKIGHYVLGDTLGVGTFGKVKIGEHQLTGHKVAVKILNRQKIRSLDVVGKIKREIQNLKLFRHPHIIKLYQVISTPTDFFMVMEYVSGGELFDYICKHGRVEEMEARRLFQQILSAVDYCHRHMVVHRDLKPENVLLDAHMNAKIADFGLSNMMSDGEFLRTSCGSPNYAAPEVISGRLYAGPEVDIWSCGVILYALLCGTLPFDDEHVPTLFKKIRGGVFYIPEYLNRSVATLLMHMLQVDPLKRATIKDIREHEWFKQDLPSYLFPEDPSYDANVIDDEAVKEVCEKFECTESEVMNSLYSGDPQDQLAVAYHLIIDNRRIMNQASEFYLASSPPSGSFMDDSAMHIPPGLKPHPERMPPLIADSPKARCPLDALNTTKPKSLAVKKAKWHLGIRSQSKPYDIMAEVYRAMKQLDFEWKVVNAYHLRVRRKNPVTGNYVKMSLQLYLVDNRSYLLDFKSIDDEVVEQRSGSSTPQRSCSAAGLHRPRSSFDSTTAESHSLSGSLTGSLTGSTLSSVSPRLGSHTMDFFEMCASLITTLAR
Sequence of GRK7 (Q8WTQ7 whole entry): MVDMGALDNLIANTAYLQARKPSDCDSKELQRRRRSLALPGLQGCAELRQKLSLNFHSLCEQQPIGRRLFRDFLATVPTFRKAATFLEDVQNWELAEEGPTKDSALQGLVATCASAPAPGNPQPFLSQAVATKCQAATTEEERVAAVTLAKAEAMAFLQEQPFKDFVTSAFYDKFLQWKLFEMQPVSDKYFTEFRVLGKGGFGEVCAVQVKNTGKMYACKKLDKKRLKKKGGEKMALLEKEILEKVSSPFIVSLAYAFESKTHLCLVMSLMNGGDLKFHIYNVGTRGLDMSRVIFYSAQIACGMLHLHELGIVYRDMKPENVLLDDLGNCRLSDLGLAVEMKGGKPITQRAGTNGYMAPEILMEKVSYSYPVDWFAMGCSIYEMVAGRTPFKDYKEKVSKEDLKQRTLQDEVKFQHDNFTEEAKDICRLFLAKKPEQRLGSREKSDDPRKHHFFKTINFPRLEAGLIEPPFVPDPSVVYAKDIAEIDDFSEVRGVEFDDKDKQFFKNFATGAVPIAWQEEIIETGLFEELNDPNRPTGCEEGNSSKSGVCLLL
Sequence of ULK3 (Q6PHR2 whole entry): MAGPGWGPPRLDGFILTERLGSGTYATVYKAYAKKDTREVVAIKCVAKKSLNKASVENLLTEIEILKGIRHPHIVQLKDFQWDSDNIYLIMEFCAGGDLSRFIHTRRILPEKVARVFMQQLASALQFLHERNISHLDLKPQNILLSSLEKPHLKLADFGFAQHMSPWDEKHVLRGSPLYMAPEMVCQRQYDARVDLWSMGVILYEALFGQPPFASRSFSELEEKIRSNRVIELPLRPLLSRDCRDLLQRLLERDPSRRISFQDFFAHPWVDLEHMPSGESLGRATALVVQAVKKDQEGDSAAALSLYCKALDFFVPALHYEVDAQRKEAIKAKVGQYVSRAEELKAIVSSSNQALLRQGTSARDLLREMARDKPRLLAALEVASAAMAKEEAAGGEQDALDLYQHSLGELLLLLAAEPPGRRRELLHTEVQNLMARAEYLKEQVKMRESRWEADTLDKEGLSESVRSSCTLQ

C=C(C)[C@H]1CC=C(C)C(=O)C1 [S-carvone]
remaining binding at 100 µM (MRCKB): 91% | remaining binding at 100 µM [1]: 78% | remaining binding at 100 µM (GRK7): 75% | remaining binding at 100 µM (CDC2L1): 90% | remaining binding at 100 µM (TAOK2): 78% | remaining binding at 100 µM (PLK3): 69% | remaining binding at 100 µM (LCK): 71% | remaining binding at 100 µM (AMPK-alpha2): 88% | remaining binding at 100 µM (PRKG1): 84% | remaining binding at 100 µM [2]: 90% | remaining binding at 100 µM (ULK3): 77% | remaining binding at 100 µM (CDK2): 85% | remaining binding at 100 µM (CSNK1A1): 68% | remaining binding at 100 µM (MINK): 72% | remaining binding at 100 µM (MKNK1): 62%
